# Source: US8951796B2, “Methods and compositions for expanding and stabilizing natural regulatory T cells” (University of Southern California, priority 2010, dated 2015)
# How the values were obtained:
# [1] = system: CD4+CD25+ nTregs; test: Th17 conversion of nTregs stimulated with anti-CD3/CD28 and IL-6 (intracellular IL-17 FACS, soluble IL-17A ELISA); format: cell-based, DBA/1 mice
# Protocol: (§1) To activate nTregs, CD25^+ or GFP^+ cells were stimulated with anti-CD3/CD28 coated beads (1:5, one bead to five cells), rmIL-2 (100 U/ml) (R&D) with DMSO or all-trans retinoic acid (atRA, 0.05 μM) for 3 days. To generate Th17 cells, these activated nTregs were stimulated with immobilized anti-CD3 (1 μg/ml), soluble anti-CD28 (1 μg/ml), anti-IL-4 (10 μg/ml) (BD biosciences), anti-IFN-γ and IL-6 (10 ng/ml) (BD Pharmingen) for 3 days.
# Because atRA was dissolved in DMSO, similar volumes of DMSO was added to the cultures to exclude the possibility that atRA has a non-specific toxic effect on T cells (FIGS. 1A and B). For the data in FIGS. 1A and B, CD4^+CD25^+ cells were stimulated with immobilized anti-CD3 (1 μg/ml), soluble anti-CD28 (1 μg/ml) and IL-6 (10 ng/ml) with or without atRA (0.05 μM). 3 days later, these cells were restimulated with PMA (0.25 μg/ml) and ionomycin (0.25 μg/ml) for 5 h and brefeldin A (5 μg/ml) for 4 h, and then collected for intracellular IL-17 and IFN-γ staining. Values indicate mean±SEM of four separate experiments and representative of these experiments
# (§2) In FIG. 1C, soluble IL-17A in the culture supernatants was analyzed by an ELISA. The horizontal line indicates the levels of IL-17A in the supernatant of naïve TCR-stimulated CD4^+ cells in the presence of IL-6 and TGF-β. E, the suppressive activities of nTregs in the presence of IL-6 and/or atRA were determined by the inhibition of tritiated thymidine ([^3H]-TdR) uptake.
# For the experiments in FIG. 2D, CD4^+CD25^+ cells were activated as in FIG. 2A and re-stimulated with IL-6 as for the experiments in FIG. 1A described above. Intracellular IL-17 and IFN-γ expression was determined by FACS staining. Results are representative of three independent experiments. IL-17 and IFN-γ secreted into the supernatants was consistent with intracellular cytokine expression (data not shown).
# [2] = system: CD4+CD25+ nTregs; test: FOXP3 expression of activated/expanded nTregs by FACS intracellular staining; format: cell-based, DBA/1 mice
# Protocol: as §1
# For the experiments in FIG. 1D, nTregs were activated with anti-CD3/CD28 coated beads in the presence of the atRA solvent (DMSO) or atRA (0.05 μM) with or without IL-6 (10 ng/ml) for 3 days and Foxp3 expression was determined and compared to freshly isolated CD4^+CD25^+ cells by FACS intracellular staining.
# (§3) For the data in FIGS. 2A and B, CD4^+CD25^+ cells were stimulated with anti-CD3/CD28 coated beads (1:5), rmIL-2 (100 U/ml) with DMSO or atRA (0.05 μM) for 7 days and the FOXP3 expression (A) and total Foxp3^+ cell numbers (B) were determined.
# [3] = system: T responder cells; test: Suppressor assay: inhibition of [3H]-TdR uptake of T responder cells by nTregs; format: cell-based, DBA/1 mice
# Protocol: To measure suppressive activities, responder T cells were stimulated with soluble anti-CD3 (0.025 μg/ml) and irradiated APC (1:1), nTregs pretreated with at-RA or without atRA were added to cultures at a ratio of 1:4 (one nTreg to four responder cells). After 72-hour cultures, triplicate wells were pulsed with 1 μCi of [^3H]-TdR for the final 16 hours. Cell proliferation was determined by [^3H]-TdR incorporation using scintillation counting.
# as §2
# In FIG. 2F, the suppressive activities of atRA or DMSO treated nTregs in the absence or presence of IL-6 in vitro was determined by similar methods as in FIG. 1E. P values were calculated by Student's test and indicate significant differences between atRA and control treated nTregs (P<0.05).
# [4] = system: nTregs; test: Expansion of nTregs with anti-CD3/28 coated beads and IL-2; format: cell-based, DBA/1 mice; settings: one week, IL-2, with atRA
# Protocol: as §1, §3
# [5] = system: IL-6R (CD126, CD130), STAT3, ROR-γt in nTregs; test: IL-6 receptor expression and signaling in nTregs by flow cytometry; format: cell-based, mouse
# Protocol: One potential mechanism by which atRA treatment stabilizes phenotype of nTregs, particularly suppressive function, may be through downregulation of the expression of IL-6R and IL-6R signaling. To investigate this potential mechanism, CD4^+CD25^+ cells were stimulated with anti-CD3/CD28 coated beads and IL-2 with or without atRA for 4 days. […] CD126 (IL-6Rα chain) expression was determined by flow cytometry. […] When atRA-treated nTregs were restimulated with IL-6, the decrease in IL-6 signaling was accompanied by a decrease of expression of ROR-γt (FIG. 4B), the crucial transcription factor required for Th17 cell differentiation. This finding is in agreement with reports that the combination of IL-2 and TGF-β has dramatic effects on both IL-6 receptor expression and signaling on nTreg cells. […] The p values indicate significant differences between DMSO treated and atRA treated nTregs (p<0.05, t test).
# [6] = system: human nTregs; test: Expansion and FOXP3 expression of human nTregs from peripheral blood; format: cell-based
# Text: In addition to mouse nTregs, atRA also stabilized FOXP3 expression of human nTregs. nTregs were isolated from human peripheral blood and expanded with anti-CD3/28 coated beads with IL-2 in the presence or absence of atRA. […] By ten days of culture control FOXP3+ cells increased 5 fold, but atRA treated nTregs increased 20 fold.
# [7] = system: nTregs isolated from CIA mice; test: nTregs isolated from CIA mice: suppressive activity by proliferation of T responder cells; format: cell-based, mouse; settings: anti-CD3 1 μg/ml, IL-6 10 ng/ml, atRA 0.05 μM, 7 days
# Protocol: For the experiments in FIG. 7A, nTregs isolated from CIA mice were stimulated with immobilized anti-CD3 (1 μg/ml) and IL-6 (10 ng/ml) with and without atRA (0.05 μM) for 7 days. Phenotypic stability was measured by FOXP3 expression and suppressive activity was determined by the proliferation of T responder cells. CMP indicates the value of T responder cells. Values in FIG. 7A indicate the mean±SEM of three independent experiments. In the experiments in FIG. 7B, nTregs from CIA mice were expanded with anti-CD3/CD28 beads (1:5) and IL-2 (100 U/ml)±atRA (0.05 μM) for 4 days. Mice with established CIA were injected intravenously with 1×10^6 atRA treated nTregs, DMSO treated nTregs or PBS (control group) (n=6/group). The mice were examined every five days after injection and the clinical scores are indicated.
# [8] = system: IL-6 Rα mRNA, p-Stat3; settings: cited from earlier work
# [9] = anti-CD3/CD28 beads, IL-2, atRA, 4 days
smiles,measurement,setting,value
"CC1=C(/C=C/C(C)=C/C=C/C(C)=C/C(=O)O)C(C)(C)CCC1 [atRA, all-trans retinoic acid]",activation and proliferation status of nTregs,[1]; addition of atRA,did not affect
same,intracellular IL-17 production,"[1]; atRA 0.05 μM added to cultures with IL-6 (10 ng/ml), 3 days",completely blocked
same,soluble IL-17 production,"[1]; atRA 0.05 μM added to cultures with IL-6 (10 ng/ml), ELISA of supernatants",completely blocked
same,Th17 and Th1 conversion of expanded nTregs,"[1]; nTregs expanded with atRA, restimulated with anti-CD3/28 beads with IL-6",completely resistant
same,FOXP3 expressed by nTregs expanded with atRA,"[2]; atRA 0.05 μM, IL-2 100 U/ml, 7 days",remained stable
same,down-regulation of FOXP3 expression in the presence of IL-6,"[2]; atRA 0.05 μM, IL-6 10 ng/ml, 3 days, vs DMSO cultures",almost completely prevented
same,FOXP3 expression following re-stimulation with IL-6,[2]; nTregs previously treated with atRA,maintained FOXP3 expression
same,suppressive activity of nTregs in the presence of IL-6,[3]; atRA added to the cultures with IL-6,maintained the suppressive activity
same,T cell response with atRA alone,"[3]; in the presence of IL-6, in the absence of nTregs",did not suppress
same,suppressive function after restimulation with IL-6,"[3]; nTregs expanded in the presence of atRA, washed",completely intact
same,suppressive activities of nTregs expanded with atRA,[3]; vs nTregs expanded without atRA,even superior
same,expansion of nTregs,[4],eight-fold
same,Stat-3 activation in nTregs,[5]; addition of atRA,significantly decreased
same,CD126 (IL-6Rα chain) expression in activated nTregs,[5]; [9],markedly decreased
same,IL-6 Rβ (CD130) expression,[5]; [9],significantly decreased
same,expression of ROR-γt,[5]; atRA-treated nTregs restimulated with IL-6,decrease
same,total number of FOXP3+ cells,[6]; human nTregs,significantly increased
same,percentage of nTregs expressing FOXP3,"[6]; human nTregs proliferating in culture, some cultures with IL-1 and/or IL-6",decreased significantly less than control nTregs
same,increase of FOXP3+ cells,"[6]; human nTregs, ten days of culture",20 fold
same,suppressive activity of nTregs from CIA mice,[7],show suppressive activity
same,levels of p-Stat3 expression induced by IL-6 plus TGF-β,[8],decreases
same,up-regulation of IL-6 Rα mRNA induced by TGF-β,[8],strongly inhibits
